Experiment [1] has as its target Heat shock protein HSP 90-alpha (Homo sapiens, UniProt P07900). In kind it is functional, organism-based.
In a further experiment the target is Genome polyprotein (Hepatitis C virus, UniProt Q2Q167). As to the kind of experiment: HCV core protein dimerization inhibitors, dose response, biochemical, TR-FRET (AID 2159).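 Note: blocks dimerization of HCV core protein measured by TR-FRET between tagged core106 pairs.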 Set-up: species or system Hepacivirus hominis. Background: TR-FRET usually uses a lanthanide donor and a delayed reading to cut background.
Sequence of Genome polyprotein (Q2Q167 whole entry): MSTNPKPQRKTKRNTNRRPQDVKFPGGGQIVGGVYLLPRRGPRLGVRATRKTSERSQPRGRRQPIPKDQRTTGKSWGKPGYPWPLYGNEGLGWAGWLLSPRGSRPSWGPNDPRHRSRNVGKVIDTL
Experiment [2] deals with UDP-galactopyranose mutase (Mycobacterium tuberculosis, UniProt P9WIQ1). Put plainly: Inhibitors of Mycobacterium tuberculosis UDP-galactopyranose mutase (UGM) enzyme Measured in Biochemical System Using Plate Reader - 2105-02_Inhibitor_Dose_CherryPick_Activity. [Related pubchem assays (depositor defined):AID504439].
Sequence of UDP-galactopyranose mutase (P9WIQ1 whole entry): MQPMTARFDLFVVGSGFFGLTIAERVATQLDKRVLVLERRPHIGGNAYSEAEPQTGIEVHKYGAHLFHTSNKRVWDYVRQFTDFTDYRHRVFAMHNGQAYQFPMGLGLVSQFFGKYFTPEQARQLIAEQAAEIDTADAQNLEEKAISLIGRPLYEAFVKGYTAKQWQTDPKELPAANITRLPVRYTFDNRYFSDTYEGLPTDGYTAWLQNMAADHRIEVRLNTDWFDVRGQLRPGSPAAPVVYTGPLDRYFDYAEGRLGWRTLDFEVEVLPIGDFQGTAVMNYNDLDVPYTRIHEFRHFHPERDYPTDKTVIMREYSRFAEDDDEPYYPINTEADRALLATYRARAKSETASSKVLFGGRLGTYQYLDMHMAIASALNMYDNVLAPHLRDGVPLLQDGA
Experiment [3] addresses DNA (cytosine-5)-methyltransferase 1 (Homo sapiens, UniProt P26358). As to the kind of experiment: DNMT1 methyltransferase inhibitors, confirmation, biochemical, fluorescent molecular beacon (AID 602386). The class given is functional.
Experiment [4] concerns the target T1, Apoptotic protease-activating factor 1 (Homo sapiens, UniProt O14727).
T1 sequence (O14727 whole entry): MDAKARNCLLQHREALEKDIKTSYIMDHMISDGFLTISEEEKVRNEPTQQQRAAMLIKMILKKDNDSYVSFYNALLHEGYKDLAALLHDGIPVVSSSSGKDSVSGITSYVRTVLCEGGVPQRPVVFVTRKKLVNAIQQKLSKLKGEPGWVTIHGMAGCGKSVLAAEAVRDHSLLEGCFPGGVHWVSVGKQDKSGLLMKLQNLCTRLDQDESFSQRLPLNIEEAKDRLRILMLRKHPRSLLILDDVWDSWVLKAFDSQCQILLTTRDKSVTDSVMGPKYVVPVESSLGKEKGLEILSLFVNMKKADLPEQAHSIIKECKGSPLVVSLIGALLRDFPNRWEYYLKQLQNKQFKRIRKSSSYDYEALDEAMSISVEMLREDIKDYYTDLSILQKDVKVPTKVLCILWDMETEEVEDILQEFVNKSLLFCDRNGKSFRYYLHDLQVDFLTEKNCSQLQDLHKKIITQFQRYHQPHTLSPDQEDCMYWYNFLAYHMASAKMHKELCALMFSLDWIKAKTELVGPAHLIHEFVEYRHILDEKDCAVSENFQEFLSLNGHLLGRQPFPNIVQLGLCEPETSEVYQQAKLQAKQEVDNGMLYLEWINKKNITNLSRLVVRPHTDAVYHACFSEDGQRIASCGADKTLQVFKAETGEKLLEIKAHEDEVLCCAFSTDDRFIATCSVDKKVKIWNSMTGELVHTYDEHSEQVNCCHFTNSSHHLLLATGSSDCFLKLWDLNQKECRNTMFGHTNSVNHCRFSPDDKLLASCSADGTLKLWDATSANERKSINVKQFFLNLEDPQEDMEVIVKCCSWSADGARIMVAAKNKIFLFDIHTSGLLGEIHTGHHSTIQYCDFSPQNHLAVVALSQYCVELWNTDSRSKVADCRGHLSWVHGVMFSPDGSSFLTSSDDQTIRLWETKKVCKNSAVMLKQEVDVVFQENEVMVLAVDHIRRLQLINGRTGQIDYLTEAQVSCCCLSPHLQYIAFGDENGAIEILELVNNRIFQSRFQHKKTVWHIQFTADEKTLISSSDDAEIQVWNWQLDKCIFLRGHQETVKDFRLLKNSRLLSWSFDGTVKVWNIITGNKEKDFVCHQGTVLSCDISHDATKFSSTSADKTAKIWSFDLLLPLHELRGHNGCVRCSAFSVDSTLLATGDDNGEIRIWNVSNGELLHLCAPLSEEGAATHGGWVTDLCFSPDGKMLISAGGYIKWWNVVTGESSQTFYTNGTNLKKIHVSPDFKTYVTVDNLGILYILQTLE
Put plainly: activation of Apaf-1 mediated apoptosis – fluorescent, uHTS hits, dose response (AID 588554). The class given is functional.

Experiment [5] deals with T2, Dual specificity protein phosphatase 3 (Homo sapiens, UniProt P51452). Put plainly: VHR1 phosphatase inhibitors, biochemical (AID 1878).
T2 sequence (P51452 whole entry): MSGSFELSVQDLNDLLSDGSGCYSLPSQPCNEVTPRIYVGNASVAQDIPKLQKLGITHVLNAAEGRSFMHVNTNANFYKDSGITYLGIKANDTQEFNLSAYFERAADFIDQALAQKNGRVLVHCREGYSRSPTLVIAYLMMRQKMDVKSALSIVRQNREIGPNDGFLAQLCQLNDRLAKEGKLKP
Experiment [6] deals with T2, Dual specificity protein phosphatase 3. As to the kind of experiment: VHR1 phosphatase inhibitors, primary screen, biochemical, absorbance, uHTS (AID 1654).
Experiment [7] concerns the target T3, DNA repair and recombination protein RAD54-like (Homo sapiens, UniProt Q92698).
T3 sequence (Q92698 whole entry): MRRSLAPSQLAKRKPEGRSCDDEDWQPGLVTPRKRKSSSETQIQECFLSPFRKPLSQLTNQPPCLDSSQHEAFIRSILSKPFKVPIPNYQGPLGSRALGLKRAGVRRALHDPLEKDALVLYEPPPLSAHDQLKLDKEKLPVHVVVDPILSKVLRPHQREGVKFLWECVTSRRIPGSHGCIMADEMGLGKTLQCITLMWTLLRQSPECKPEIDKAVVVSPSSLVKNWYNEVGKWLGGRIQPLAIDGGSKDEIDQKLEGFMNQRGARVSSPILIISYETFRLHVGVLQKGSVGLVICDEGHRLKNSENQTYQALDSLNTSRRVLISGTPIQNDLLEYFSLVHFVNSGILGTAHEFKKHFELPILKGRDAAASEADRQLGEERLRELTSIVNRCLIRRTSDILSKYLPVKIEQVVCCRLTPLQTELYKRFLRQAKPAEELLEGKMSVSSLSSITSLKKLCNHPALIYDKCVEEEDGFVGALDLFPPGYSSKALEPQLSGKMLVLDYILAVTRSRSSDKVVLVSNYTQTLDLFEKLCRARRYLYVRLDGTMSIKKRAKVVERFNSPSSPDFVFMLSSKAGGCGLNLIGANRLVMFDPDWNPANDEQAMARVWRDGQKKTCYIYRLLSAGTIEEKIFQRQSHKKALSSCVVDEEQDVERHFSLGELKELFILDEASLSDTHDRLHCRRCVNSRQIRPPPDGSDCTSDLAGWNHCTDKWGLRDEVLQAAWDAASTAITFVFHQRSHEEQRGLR
As to the kind of experiment: inhibitors of human RAD54 branch migration, confirmation, biochemical, fluorescence, cherry-picked samples, dose series (AID 651657). In kind it is functional.

For a further experiment, the target named is Phospholipase A2 (Homo sapiens, UniProt P04054). The class given is functional.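 Note: confirmatory dose-response counterscreen on phospholipase A2, testing hits that came from an ultra-high-throughput screen for ATG4B inhibitors.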
Sequence of Phospholipase A2 (P04054 whole entry): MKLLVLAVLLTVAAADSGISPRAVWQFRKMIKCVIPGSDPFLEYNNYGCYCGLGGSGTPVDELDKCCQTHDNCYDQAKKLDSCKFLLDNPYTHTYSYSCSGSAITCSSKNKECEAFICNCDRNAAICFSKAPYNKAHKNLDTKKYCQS
The target of the next experiment is T4, Cysteine protease ATG4B (Homo sapiens, UniProt Q9Y4P1).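 Note: Fluorescence-based dose-response confirmation assay measuring inhibition of ATG4B activity.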
T4 sequence (Q9Y4P1 whole entry): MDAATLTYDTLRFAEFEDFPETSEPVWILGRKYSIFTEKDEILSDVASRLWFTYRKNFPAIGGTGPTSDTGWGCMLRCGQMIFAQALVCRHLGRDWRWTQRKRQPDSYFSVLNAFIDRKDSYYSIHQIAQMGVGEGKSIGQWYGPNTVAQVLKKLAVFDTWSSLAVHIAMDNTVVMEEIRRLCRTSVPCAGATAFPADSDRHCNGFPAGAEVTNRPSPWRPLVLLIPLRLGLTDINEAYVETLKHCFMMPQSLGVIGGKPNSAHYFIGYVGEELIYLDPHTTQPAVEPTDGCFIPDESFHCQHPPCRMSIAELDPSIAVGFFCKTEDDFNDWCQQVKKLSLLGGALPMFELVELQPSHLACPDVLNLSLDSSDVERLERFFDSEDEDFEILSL
In kind it is functional.

Several values for one entry are separate records, joined by “and”; a condition that tells them apart may be missing. Equal entries are not always repeated. Activity calls are given as the source filed them. A value given as a limit tells only on which side of the number the result lay.

Sequence of DNA (cytosine-5)-methyltransferase 1 (P26358 whole entry): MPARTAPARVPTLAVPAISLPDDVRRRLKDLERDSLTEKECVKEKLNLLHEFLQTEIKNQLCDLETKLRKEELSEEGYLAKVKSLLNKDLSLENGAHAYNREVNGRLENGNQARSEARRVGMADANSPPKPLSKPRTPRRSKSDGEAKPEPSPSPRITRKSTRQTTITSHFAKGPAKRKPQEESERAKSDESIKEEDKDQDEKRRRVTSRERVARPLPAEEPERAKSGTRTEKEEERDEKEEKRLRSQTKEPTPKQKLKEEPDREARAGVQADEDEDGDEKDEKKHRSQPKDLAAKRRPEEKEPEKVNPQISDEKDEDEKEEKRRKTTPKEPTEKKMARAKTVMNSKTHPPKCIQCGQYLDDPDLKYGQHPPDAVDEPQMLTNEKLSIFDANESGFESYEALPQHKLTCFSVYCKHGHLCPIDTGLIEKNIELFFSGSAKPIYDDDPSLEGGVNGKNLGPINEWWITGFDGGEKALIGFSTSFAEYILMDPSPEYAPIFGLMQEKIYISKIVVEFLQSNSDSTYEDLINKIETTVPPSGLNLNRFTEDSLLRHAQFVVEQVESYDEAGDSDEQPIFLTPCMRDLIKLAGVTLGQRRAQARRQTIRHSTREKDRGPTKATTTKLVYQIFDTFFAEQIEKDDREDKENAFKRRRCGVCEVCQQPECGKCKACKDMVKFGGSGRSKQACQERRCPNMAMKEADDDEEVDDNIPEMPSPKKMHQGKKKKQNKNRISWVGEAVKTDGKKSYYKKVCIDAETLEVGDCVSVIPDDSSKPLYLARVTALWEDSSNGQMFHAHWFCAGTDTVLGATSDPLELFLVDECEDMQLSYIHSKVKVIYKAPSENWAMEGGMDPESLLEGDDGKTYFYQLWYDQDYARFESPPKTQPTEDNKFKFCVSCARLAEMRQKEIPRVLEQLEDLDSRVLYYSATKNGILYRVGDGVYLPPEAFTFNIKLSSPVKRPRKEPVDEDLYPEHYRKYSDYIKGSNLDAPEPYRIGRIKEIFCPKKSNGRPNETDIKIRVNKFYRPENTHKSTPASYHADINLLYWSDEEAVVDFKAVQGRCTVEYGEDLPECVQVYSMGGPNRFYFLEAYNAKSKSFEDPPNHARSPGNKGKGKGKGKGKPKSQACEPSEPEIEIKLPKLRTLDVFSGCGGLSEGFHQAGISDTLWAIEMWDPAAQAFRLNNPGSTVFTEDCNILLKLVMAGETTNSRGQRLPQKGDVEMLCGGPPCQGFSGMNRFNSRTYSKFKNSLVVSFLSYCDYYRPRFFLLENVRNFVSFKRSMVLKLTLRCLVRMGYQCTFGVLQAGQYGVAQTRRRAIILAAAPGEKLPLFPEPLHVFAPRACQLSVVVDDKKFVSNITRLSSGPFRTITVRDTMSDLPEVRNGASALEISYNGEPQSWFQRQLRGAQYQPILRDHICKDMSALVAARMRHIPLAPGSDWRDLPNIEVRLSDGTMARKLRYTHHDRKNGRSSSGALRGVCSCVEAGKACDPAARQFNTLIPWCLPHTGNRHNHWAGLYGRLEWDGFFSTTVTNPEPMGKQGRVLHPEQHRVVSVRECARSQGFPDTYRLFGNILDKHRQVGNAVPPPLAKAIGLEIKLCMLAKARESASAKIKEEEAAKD

As for `CCN1/C(=C/c2ccc3cc(C)ccc3[n+]2CC)Sc2cc(C)c(C)cc21`, the half-maximal activity concentration (AC50) (in general, the concentration giving half of the maximal activity seen) in experiment [1] is 4.16 µM (active) and 2.67 µM (active). As for `Nc1ccc2nc3c(O)nc(S)nc3nc2c1`, the half-maximal inhibitory concentration (IC50) (as a rule, the midpoint of a concentration-inhibition curve) at Genome polyprotein is > 49.8 µM (not active). In addition, the AC50 in [2] is 3.57 µM (active). As for `CSc1ccc(C=NNc2ccc(S(=O)(=O)Nc3ccccc3C(=O)O)cc2[N+](=O)[O-])cc1`, the IC50 in experiment [3] was 3.26 µM (active). Moreover, the concentration giving a half-maximal response (EC50) (as a rule, the concentration at which the effect is half-maximal) in [4] was 8.23 µM (active).

Turning to `O=C(O)COc1ccc(/C=N/NC(=O)c2ccc(-c3csc(Nc4ccc(Cl)cc4)n3)cc2)cc1`, the IC50 in experiment [5] is 1.3 µM (active); in experiment [6], 2.52 µM (active). On to `COc1cc(NCCCNC(C)C)c2nccc(C)c2c1`, for which the concentration at half-maximal activity (AC50) in experiment [7] was 49.6 µM (active). For `CC(/C=C1\SC(=S)N(NS(=O)(=O)c2ccccc2)C1=O)=C\c1ccccc1`, the figures for the IC50 on Phospholipase A2 and on Cysteine protease ATG4B were 8.23 µM (active) and 12 µM (active), respectively.

For the origin of these results see ChEMBL document CHEMBL1201862, “PubChem BioAssay data set” (2004).
